# Laboratory results taken from patent publication US5627173A, “Phosphonoacetic acid derivatives and their use for treating degenerative joint disorders” (Hoechst Aktiengesellschaft, priority 1995, dated 1997).
# Experiments:
# matrix metalloproteases = assay: Inhibition of matrix metalloproteases (MMP from rabbit synoviocytes HIG-82, fluorescent substrate); assay type: biochemical
# Procedure: After confluent cell growth, the MMP expression was induced in the serum-free 3F12 HAM medium by adding 0.3 μmol/l phorbol 12-myristate 13-acetate. The supernatant was removed after incubating at 37° C. for 20 hours.
# Activation of the MMP: The supernatant was activated with trypsin (5 μg/ml). After 15 minutes at 37° C., the activation was stopped by adding 1 mmol/l phenylmethylsulfonyl fluoride (PMSF) and incubating for a further 10 minutes. The total volume of the mixture was 210 μl.
# The test substance was added in the stated concentration (see table). […] The reaction was stopped after 30 minutes by adding 10 mmol/l EDTA. The total-volume of the mixture was 320 μl . The parameters measured were the fluorescence intensities at […]. In order to take account of the possible intrinsic fluorescence of the test substances, the fluorescence intensities from parallel measurements without substrate were subtracted from the measurements with substrate. All the steps took place at 20° C.
# interleukin-1β = assay: Inhibition of release of interleukin-1β from human mononuclear cells; assay type: cell-based; conditions: 10 .parallel.mol/l (so in the source), IL-1β, LPS-stimulated, 20 to 22 hours
# Procedure: Obtaining mononuclear cells from human blood: 10 ml of human blood stabilized with 1 ml of 3.8 percent sodium citrate solution were diluted with 10 ml of PM16 (Serra, Heidelberg), and an underlayer of 15 ml of Lymphoprep (Dr. Molter GmbH, Heidelberg) was introduced. The samples were centrifuged at 400 x g (Minifuge 2 Heraeus, Osterode) at room temperature for 40 minutes. The mononuclear cells were visible as a white ring at the Lymphoprep/plasma boundary. This ring was cautiously removed with a syringe, diluted with the same volume of PM16 and centrifuged at 400 x g for 10 minutes. The precipitate was washed with ^~ 10 ml of RPMI1640 (+300 mg/I L-glutamine, Gibco, Eggenstein). After the cells had been suspended in ^~ 1 ml of RPMI1640 (+300 mg/I L-glutamine, +25 mM HEPES, +100 μg/ml streptomycin, +100 μg/ml penicillin), the cell density was determined with a JT Coulter Counter (Coulter Diagnostics) and adjusted to 5.10^6 /ml. 90% of the resulting cells were lymphocytes and 10% were monocytes.
# Inhibition of release of interleukin-1β: 230 μl of mononuclear cells were incubated with 10 μl of test substance (10 μM in dimethyl sulfoxide (DMSO)/water=1/10) and 10 μl of a lipopolysaccharide solution (500 μg dissolved in 1 ml of DMSO and diluted 1/10 with water before starting the test, from Salmonella abortus equi, (Sigma, Deisenhofen) at 37° C., 5% CO2 for 20 to 22 hours. The samples were cooled to 0° C. in an ice bath and centrifuged in a Sigma centrifuge (2 minutes; 2000 revolutions per minute (rpm)). Aliquots of the supernatant were determined using a commercially available ELISA 5(Biermann, Bad Nauheim).
# All active substances were tested at a concentration of 10 .parallel.mol/l. IL-1β release was tested in each case.
# [1] = test system: isolated guinea pig trachea; assay: Antagonism of KCl-induced contraction of the isolated guinea pig trachea; conditions: Cavia porcellus; agonist KCl; read-out: Anticontractile effect (trachea), concentration range needed to bring about a dilatation corresponding to the ED50 range
# Text: (§1) The compounds according to the invention are used as antagonists of the contraction of various parts of organs, in this case the isolated guinea pig trachea. The agonists used were KCl, PGF2a, calcium ionophore A23187 and substance P:
# Products with a non-specific effect generally show a spasmolytic effect with respect to all agonists. KCI is representative here of non-specific, receptor-independent contraction because KCl-induced contractions are produced predominantly physically, that is to say by increasing the K+ concentration in the outside medium, and change the resting potential of the cell.
# (§2) The guinea pigs were sacrificed by lethal anesthesia with laughing gas. The trachea was dissected out over its entire length and cut into 15 individual cartilage rings. In each case five rings were connected together to form a chain and fixed in an organ bath under a preload of 3 g. After an equilibration period of 45 minutes, a contraction was induced with the agonist. Cumulative addition of the antagonist (test product) took place at the plateau 5 of the maximum. Evaluation took place as % change in strength based on the maximum contraction. The test was carried out at 37° C., and the physiological nutrient solution used was a modified Krebs-Henseleit solution through which 95% by volume 02 and 5% by volume CO2 was bubbled.
# (§3) Test animals: Albino guinea pigs (102), weight: 200 to 300 g, male or female
# (§4) Composition of the organ bath (nutrient solution):
# (§5) Vehicle: Double-distilled water, ethanol or isopropanol; Administration: into the organ bath Number of administrations: cumulative, single doses for SP
# [2] = test system: isolated guinea pig trachea; assay: Antagonism of PGF2α-induced contraction of the isolated guinea pig trachea; conditions: Cavia porcellus; agonist PGF2α; read-out: Anticontractile effect (trachea), concentration range needed to bring about a dilatation corresponding to the ED50 range
# Text: as §1
# Inhibition of contractions induced by this cyclooxygenase product is possible only by competitive antagonism at the receptor or of the downstream signal pathway.
# as §2, §3, §4, §5
# [3] = test system: isolated guinea pig trachea; assay: Antagonism of substance P-induced contraction of the isolated guinea pig trachea; conditions: Cavia porcellus; agonist substance P; read-out: Anticontractile effect (trachea), concentration range needed to bring about a dilatation corresponding to the ED50 range
# Text: as §1
# Antagonism is possible on the one hand by specific receptor antagonists, and on the other hand by inhibition of the downstream signal pathway.
# as §2, §3, §4, §5
# [4] = test system: isolated strips of guinea pig lung; assay: Antagonism of LTD4-induced contraction of isolated strips of guinea pig lung; conditions: Cavia porcellus; agonist LTD4; read-out: Anticontractile effect (lung), concentration range corresponding to the IC50 value
# Text: (§6) The test was based on the same principle as the test indicated in Pharmacological Test 5; however, strips of lung were used in this case.
# (§7) The guinea pig was sacrificed under anesthesia with laughing gas. The entire lung tract was cut out starting from the trachea. The lobes of the lungs were cut in circular fashion to produce strips about 3 mm wide. The strips of the upper lobes were divided up in order to obtain a total of six strips of approximately equal size. The strips were suspended in the organ baths under a preload of 4 g. Modified Krebs-Henseleit solutions were used as nutrient solution. When platelet activating factor (PAF) was used as agonist, the composition of this solution corresponded to that for the agonist SP in Pharmacological Test 5; a Krebs-Henseleit solution as in the case of the agonist KCI (Pharm. Test 5) was used for the agonist LTD4. 95% by volume 02, 5% by volume CO2 was bubbled through the bath, and the bath temperature was 37° C. The test is carried out by a therapeutic/cumulative method with dose levels of 1, 3, 6 and 10 μg/ml.
# (§8) The test animals, organ bath, vehicle, mode of administration corresponded to that stated for Pharmacological Test 5.
# [5] = test system: isolated strips of guinea pig lung; assay: Antagonism of PAF-induced contraction of isolated strips of guinea pig lung; conditions: Cavia porcellus; agonist PAF; read-out: Anticontractile effect (lung), concentration range corresponding to the IC50 value
# Text: as §6, §7, §8
# [6] = test system: isolated guinea pig trachea; assay: Antagonism of calcium ionophore A23187-induced contraction of the isolated guinea pig trachea; conditions: Cavia porcellus; agonist Ca ionophore A23187; read-out: Anticontractile effect (trachea), concentration range needed to bring about a dilatation corresponding to the ED50 range
# Text: as §1
# c) Calcium ionophore A23187 (Calbiochem, Bad Soden) brings about, due to increased uptake of calcium ions, an activation of all calcium-dependent signal cascades in the cell.
# as §2, §3, §4, §5
Compound,"Inhibition of MMP, Inhibition (%) (matrix metalloproteases; 100 μM)","Inhibition of MMP, Inhibition (%) (matrix metalloproteases; 30 μM)",inhibition at 10 µM (interleukin-1β) [%],IC50 [4] [µg/mL],IC50 [5] [µg/mL],also measured
COc1cc(C=C(C(=O)OC(C)C)P(=O)(OC)OC)cc(OC)c1 [Compound 28],9,–,–,–,–,–
COc1ccc(C=C(C(=O)OC(C)C)P(=O)(OC)OC)c(OC)c1 [Compound 32],52,22,80,–,–,"Inhibition of MMP, Inhibition (%) (matrix metalloproteases; 10 μM): 12%"
"CCOP(=O)(OCC)C(C#N)Cc1ccc(OC)c(OC)c1 (stereo not shown) [Compound 34, 2-(diethoxyphosphinyl)-3-(3,4-dimethoxy-phenyl)propiononitrile]",–,–,–,–,–,EC50 [1]: > 10 µg/mL; EC50 [2]: > 10 µg/mL; EC50 [3]: 1 to 10 µg/mL
COc1ccc(CC(C(=O)OC(C)C)P(=O)(OC)OC)cc1OC (stereo not shown) [Compound 41],–,–,11,> 10,1 to 3,–
"CCOP(=O)(OCC)C(C#N)=Cc1ccc(OC(C)=O)c(OC(C)=O)c1 [Compound 56, 3-(3,4-Diacetoxyphenyl)-2-(diethoxyphosphinyl) acrylonitrile]",–,–,–,3 to 6,1 to 3,–
COc1ccc(C=C(C(=O)OC(C)C)P(=O)(OC)OC)cc1OCc1ccccc1 [Compound 14],50,19,–,–,–,–
CCOP(=O)(OCC)C(C#N)Cc1ccc(OCc2ccccc2)c(OCc2ccccc2)c1 (stereo not shown) [Compound 11],–,–,–,–,6 to 10,EC50 [1]: > 10 µg/mL; EC50 [2]: > 10 µg/mL; EC50 [3]: 10 to 30 µg/mL
CCOP(=O)(OCC)C(=Cc1c(OC)cccc1OC)C(=O)OC(C)C [Compound 48],26,9,–,–,–,"Inhibition of MMP, Inhibition (%) (matrix metalloproteases; 10 μM): 7%"
COP(=O)(OC)C(=Cc1ccc(OCc2ccccc2)c(OCc2ccccc2)c1)C(=O)OC(C)C [Compound 27],48,24,99,–,–,–
"CC(C)OC(=O)C(=Cc1ccc(OCc2ccccc2)c(OCc2ccccc2)c1)P(=O)(O)O [Compound 51, Ammonium hydrogen 2-(3,4-dibenzyloxybenzylidene)-isopropoxycarbonylmethanephosphonate]",14,–,–,–,–,–
CCOP(=O)(OCC)C(C#N)=Cc1ccc(OC)c(OCc2ccc(CBr)cc2)c1 [Compound 4],–,–,–,3 to 6,1 to 3,–
COP(=O)(OC)C(Cc1ccc(OCc2ccccc2)c(OCc2ccccc2)c1)C(=O)OC(C)C (stereo not shown) [Compound 25],–,24,–,–,–,–
CCOP(=O)(OCC)C(C#N)=Cc1cc(OC)ccc1OC [Compound 30],–,–,–,~10,1 to 3,EC50 [1]: > 10 µg/mL; EC50 [2]: 6 to 10 µg/mL; EC50 [6]: 3 to 6 µg/mL; EC50 [3]: 10 to 30 µg/mL
"COc1ccc(C=C(C(=O)OC(C)C)P(=O)(OC)OC)cc1O [Compound 26, Isopropyl 2-(dimethoxyphosphinyl)-3-(3-hydroxy-4-methoxy-phenyl)propenoate]",51,–,59,–,–,"Inhibition of MMP, Inhibition (%) (matrix metalloproteases; 10 μM): 15%"
"CCOC(=O)C(Cc1ccc(OC(C)=O)c(OC(C)=O)c1)P(=O)(OCC)OCC (racemic) [Compound 61, Ethyl 3-(3,4-diacetoxyphenyl)-2-(diethoxyphosphinyl) propionate (rac.)]",–,–,–,> 10,~3,–
COc1ccc(C=C(C(=O)OC(C)C)P(=O)(O)O)cc1OC [Compound 50],14,–,–,–,–,–
CCCCCCCCCCCCOc1cc(C=C(C#N)P(=O)(OCC)OCC)ccc1OC [Compound 1],–,–,–,> 10,1 to 3,–
CCOP(=O)(OCC)C(C#N)=Cc1ccc(OC)cc1OC [Compound 44],–,–,–,–,–,EC50 [1]: > 10 µg/mL; EC50 [2]: ~6 µg/mL; EC50 [3]: 10 to 30 µg/mL
CCOP(=O)(OCC)C(=Cc1ccc(OC(C)=O)c(OC(C)=O)c1)C(=O)OC [Compound 49],28,8,–,–,–,–
COc1cc(CC(C(=O)OC(C)C)P(=O)(OC)OC)cc(OC)c1OC (stereo not shown) [Compound 36],–,–,15,–,–,–
COc1ccc(C=C(C(=O)OC(C)C)P(=O)(OC)OC)cc1OC [Compound 39],47,19,63,~10,–,"Inhibition of MMP, Inhibition (%) (matrix metalloproteases; 10 μM): 16%"
CCOP(=O)(OCC)C(Cc1ccc(OS(C)(=O)=O)c(OS(C)(=O)=O)c1)C(=O)OC(C)C (stereo not shown) [Compound 46],–,–,–,~10,1 to 3,–
COc1cc(C=C(C(=O)OC(C)C)P(=O)(OC)OC)cc(OC)c1OC [Compound 31],35,12,97,–,–,"Inhibition of MMP, Inhibition (%) (matrix metalloproteases; 10 μM): 8%"
COP(=O)(OC)C(=Cc1ccc2c(c1)OCO2)C(=O)OC(C)C [Compound 42],–,–,77,> 10,3 to 6,–
CCOP(=O)(OCC)C(C#N)=Cc1ccc2c(c1)OCCO2 [Compound 70],–,–,–,~6,–,–
COc1cc(OC)c(OC)cc1C=C(C(=O)OC(C)C)P(=O)(OC)OC [Compound 35],52,21,83,–,–,–
COc1ccc(C=C(C(=O)OC(C)C)P(=O)(OC)OC)cc1OC1CCCC1 [Compound 21],51,19,–,–,–,–
CCOP(=O)(OCC)C(=Cc1ccc(OS(C)(=O)=O)c(OS(C)(=O)=O)c1)C(=O)OC(C)C [Compound 63],–,–,92,–,–,–
